Patent US11964971B2, “Methods and compositions for modulating splicing” (Skyhawk Therapeutics, Inc., priority 2019, dated 2024)
Read-outs that look alike come from different tables or passages of the source.

Experiments:
[1] = tested on: SMN protein; assay: SMN protein assay (MSD) in SMA patient fibroblasts (GM03813); type: cell-based, human
Outline: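 Absolute SMN protein measured by Mesoscale Discovery assay in lysates, calibrated per plate with SMN standards (1–19.5 μg/ml). Cells: GM03813 SMA fibroblasts, 7000/well, 48 h compound exposure at doses of 2.5 μM down to 0.6 nM.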

[2] = tested on: SMN FL and SMN Δ7; assay: Quantitative splicing assay (SMN) in SMA patient fibroblasts (GM03813); type: cell-based; conditions: Homo sapiens, Fibroblast, read-out: SMN2 Splicing FL EC50 (nM)*
Method: Spinal muscular atrophy (SMA) patient fibroblasts (GM03813, Coriell) are plated in 96-well plates at 50,000 cells/well. […] Treated cells are lysed and cDNA synthesized using the Fast Advanced Cells-to-Ct kit (Thermofisher A35378) according to the manufacturer's instructions. 2 μL of each cDNA are used in qPCR reactions. […] Reactions are run in a Quant Studio 6 qPCR instrument with default settings.

[3] = tested on: MDR1 (P-gp); assay: MDCK-MDR1 permeability assay, blood-brain-barrier penetration potential; conditions: dog, MDCK-MDR1, pH 7.4, MDCK-MDR1 Efflux Ratio
[4] = tested on: MDR1; assay: in vitro; conditions: dog; for Papp A→B at 120 min, 5 μM: MDCK-MDR1, pH 7.4, MDCK-MDR1: Papp A-B (10^−6, cm/s); for Papp B→A at 120 min, 5 μM: MDCK-MDR1, pH 7.4, MDCK-MDR1: Papp B-A (10^−6, cm/s)
[5] = tested on: MDR1-MDCK cell monolayers; conditions: dog, MDCK-MDR1, 120 min, 5 μM, pH 7.4

Q: What does the source list for `CN(c1cnc(-c2cc(F)c(-c3ccn(C)c(=O)c3)cc2O)cn1)[C@H]1C[C@@H]2CCCC(N2)[C@H]1F` (single isomer, unassigned) [Compound 12E2]?
A: EC50 [1]: 16 to 50 nM; EC50 ([2]; class symbol): 501 to 10000 nM; efflux ratio at 120 min, 5 μM [3]: 27; Papp A→B at 120 min, 5 μM [4]: 2.14 ×10⁻⁶ cm/s; Papp B→A at 120 min, 5 μM [4]: 57.4 ×10⁻⁶ cm/s; MDCK-MDR1: % Recov A-B (%) [5]: 72%; MDCK-MDR1: % Recov B-A (%) [5]: 88%

Q: With `CN(c1cnc(-c2cc(F)c(-c3ccn(C)c(=O)c3)cc2O)cn1)[C@H]1C[C@@H]2CCC(N2)[C@H]1F` (single isomer, unassigned) [Compound 13E2] as the compound, how does the EC50 [1] read?
A: 0.01 to 15 nM

Q: And the EC50 ([2]; given as number)?
A: 398 nM

Q: And the efflux ratio at 120 min, 5 μM [3]?
A: 21

Q: What about the Papp A→B at 120 min, 5 μM [4] of the same compound?
A: 1.97 ×10⁻⁶ cm/s

Q: And the Papp B→A at 120 min, 5 μM [4]?
A: 40.8 ×10⁻⁶ cm/s

Q: And the “MDCK-MDR1: % Recov A-B (%)” value [5]?
A: 80%

Q: What about the “MDCK-MDR1: % Recov B-A (%)” value [5] of the same compound?
A: 87%

Q: Which EC50 [1] does the source give for `CN(c1cnc(-c2ccc(-c3cnn(C)c3)cc2O)cn1)[C@@H]1CC2CC[C@H](N2)[C@@H]1F` (single isomer, unassigned) [Compound 16E1] here?
A: 16 to 50 nM

Q: And the EC50 ([2]; class symbol)?
A: 501 to 10000 nM

Q: What about the efflux ratio at 120 min, 5 μM [3] of the same compound?
A: 4

Q: And the Papp A→B at 120 min, 5 μM [4]?
A: 5.62 ×10⁻⁶ cm/s

Q: And the Papp B→A at 120 min, 5 μM [4]?
A: 20.6 ×10⁻⁶ cm/s

Q: And the “MDCK-MDR1: % Recov A-B (%)” value [5]?
A: 45%

Q: And the “MDCK-MDR1: % Recov B-A (%)” value [5]?
A: 79%

Q: How did the EC50 [1] turn out when `CN(c1cnc(-c2ccc(-c3cnn(C)c3)cc2O)cn1)[C@H]1C[C@@H]2CCC(N2)[C@H]1F` (single isomer, unassigned) [Compound 16E2] was run?
A: 16 to 50 nM

Q: What about the EC50 ([2]; class symbol) of the same compound?
A: 101 to 500 nM

Q: And the efflux ratio at 120 min, 5 μM [3]?
A: 4

Q: And the Papp A→B at 120 min, 5 μM [4]?
A: 7.68 ×10⁻⁶ cm/s

Q: What about the Papp B→A at 120 min, 5 μM [4] of the same compound?
A: 28.4 ×10⁻⁶ cm/s

Q: What about the “MDCK-MDR1: % Recov A-B (%)” value [5] of the same compound?
A: 54%

Q: And the “MDCK-MDR1: % Recov B-A (%)” value [5]?
A: 86%

Q: Which results are given for `COc1cc(-c2ccc(-c3cnc(N(C)[C@@H]4CC5CC[C@H](N5)[C@@H]4F)cn3)c(O)c2)cnn1` (single isomer, unassigned) [Compound 26E1]?
A: EC50 [1]: 501 to 10000 nM; EC50 ([2]; class symbol): 101 to 500 nM; efflux ratio at 120 min, 5 μM [3]: 5; Papp A→B at 120 min, 5 μM [4]: 5.06 ×10⁻⁶ cm/s; Papp B→A at 120 min, 5 μM [4]: 24.4 ×10⁻⁶ cm/s; MDCK-MDR1: % Recov A-B (%) [5]: 45%; MDCK-MDR1: % Recov B-A (%) [5]: 74%

Q: How did the EC50 [1] turn out when `COc1cc(-c2ccc(-c3cnc(N(C)[C@H]4C[C@@H]5CCC(N5)[C@H]4F)cn3)c(O)c2)cnn1` (single isomer, unassigned) [Compound 26E2] was run?
A: 16 to 50 nM

Q: What about the EC50 ([2]; class symbol) of the same compound?
A: 101 to 500 nM

Q: And the efflux ratio at 120 min, 5 μM [3]?
A: 8

Q: And the Papp A→B at 120 min, 5 μM [4]?
A: 3.16 ×10⁻⁶ cm/s

Q: And the Papp B→A at 120 min, 5 μM [4]?
A: 23.9 ×10⁻⁶ cm/s

Q: And the “MDCK-MDR1: % Recov A-B (%)” value [5]?
A: 41%

Q: And the “MDCK-MDR1: % Recov B-A (%)” value [5]?
A: 67%

Q: How did the EC50 [1] turn out when `CN(c1cnc(-c2ccc(-c3cn[nH]c3)cc2O)cn1)[C@H]1C[C@@H]2CCC(N2)[C@@H]1F` (single isomer, unassigned) [Compound 27E2] was run?
A: 16 to 50 nM

Q: What about the EC50 ([2]; class symbol) of the same compound?
A: 101 to 500 nM

Q: And the efflux ratio at 120 min, 5 μM [3]?
A: 9

Q: What about the Papp A→B at 120 min, 5 μM [4] of the same compound?
A: 4.45 ×10⁻⁶ cm/s

Q: And the Papp B→A at 120 min, 5 μM [4]?
A: 40.6 ×10⁻⁶ cm/s

Q: And the “MDCK-MDR1: % Recov A-B (%)” value [5]?
A: 80%

Q: What about the “MDCK-MDR1: % Recov B-A (%)” value [5] of the same compound?
A: 85%

Q: Which EC50 [1] does the source give for `CN(c1cnc(-c2ccc(-c3cn[nH]c3)cc2O)cn1)[C@H]1C[C@]2(C)CCC(N2)[C@H]1F` (single isomer, unassigned) [Compound 28E1] here?
A: 0.01 to 15 nM

Q: And the EC50 ([2]; class symbol)?
A: 101 to 500 nM

Q: And the efflux ratio at 120 min, 5 μM [3]?
A: 15

Q: And the Papp A→B at 120 min, 5 μM [4]?
A: 3.23 ×10⁻⁶ cm/s

Q: What about the Papp B→A at 120 min, 5 μM [4] of the same compound?
A: 48.1 ×10⁻⁶ cm/s

Q: What about the “MDCK-MDR1: % Recov A-B (%)” value [5] of the same compound?
A: 66%

Q: What about the “MDCK-MDR1: % Recov B-A (%)” value [5] of the same compound?
A: 80%

Q: `CN(c1cnc(-c2cc(F)c(-c3cnn(CF)c3)cc2O)cn1)[C@H]1C[C@@H]2CCC(N2)[C@H]1F` (single isomer, unassigned) [Compound 29E2] was tested. Which EC50 [1] did it give?
A: 16 to 50 nM

Q: What about the EC50 ([2]; class symbol) of the same compound?
A: 51 to 100 nM

Q: And the efflux ratio at 120 min, 5 μM [3]?
A: 3

Q: And the Papp A→B at 120 min, 5 μM [4]?
A: 5.59 ×10⁻⁶ cm/s

Q: What about the Papp B→A at 120 min, 5 μM [4] of the same compound?
A: 18.3 ×10⁻⁶ cm/s

Q: What about the “MDCK-MDR1: % Recov A-B (%)” value [5] of the same compound?
A: 31%

Q: And the “MDCK-MDR1: % Recov B-A (%)” value [5]?
A: 50%

Q: What does the source list for `COc1cc(-c2cc(O)c(-c3cnc(N(C)[C@H]4C[C@@H]5CCC(N5)[C@H]4F)cn3)cc2F)ncn1` (single isomer, unassigned) [Compound 34E2]?
A: EC50 [1]: 16 to 50 nM; EC50 ([2]; class symbol): 51 to 100 nM; efflux ratio at 120 min, 5 μM [3]: 2; Papp A→B at 120 min, 5 μM [4]: 3.76 ×10⁻⁶ cm/s; Papp B→A at 120 min, 5 μM [4]: 7.23 ×10⁻⁶ cm/s; MDCK-MDR1: % Recov A-B (%) [5]: 21%; MDCK-MDR1: % Recov B-A (%) [5]: 66%
